Test system: murine skin inflammation; swelling caused by AA
Assay: arachidonic acid (AA), murine skin inflammation (ear) model, topical administration
Format: in vivo
Conditions: for percent inhibition of swelling caused by AA alone: 10 uL of 100 mg/mL in CHCl3 (lithocholic acid in CHCl3:CH3OH 1:1) applied to the ear immediately after AA, 90 minutes; for % Inhibition of Swelling: topical, 1 mg applied to the ear immediately after arachidonic acid, 6 mm ear disk weighed at 90 minutes, average of two experiments (Table 1)
Description: Briefly, the compounds at an appropriate concentration are dissolved in a suitable solvent, and applied to a rodent ear immediately following application of arachidonic acid (AA). A control of AA alone is run. About 90 minutes later, a 6 mm disk of each ear is removed and weighed. The percent inhibition of swelling caused by AA alone is calculated for the steroidal C-glycoside derivatives of the invention and compared to other steroids.
Using the arachidonic acid (AA), murine skin inflammation model, described by Harris, R. R. et al. (Skin Pharmacol 1990; 3:29-40) the anti-inflammatory activity of (5) was tested. For comparison, Lithocholic acid and Methyl lithocholate, were also tested. Compounds were dissolved at 100 mg/mL in CHCl3, except for lithocholic acid which was dissolved in CHCl3 :CH3 OH (1:1); 10 uL of each compound was applied to the ear immediately following arachidonic acid (AA). AA was applied alone, or followed immediately with methyl lithocholate, ketone (12) alkene (11) or compound (5). 90 minutes later, a 6 mm disk of each ear was removed and weighed.

## C[C@H](CCC(=O)O)[C@H]1CC[C@H]2[C@@H]3CC[C@@H]4C[C@H](O)CC[C@]4(C)[C@H]3CC[C@]12C [Lithocholic acid]
  percent inhibition of swelling caused by AA alone: ~22.5%
  % Inhibition of Swelling: 30.5%

## COC(=O)CC[C@@H](C)[C@H]1CC[C@H]2[C@@H]3CC[C@@H]4C[C@H](OCC(O)(CO)C[C@@H]5O[C@@H](C)[C@@H](O)[C@@H](O)[C@@H]5O)CC[C@]4(C)[C@H]3CC[C@]12C (stereo partly drawn) [compound (5), 1-[3-O-(Lithocholic acid)]-2-(alpha-L-C-methylfucopyranose)-2',3'-propanediol methyl ester]
  percent inhibition of swelling caused by AA alone: about 48.5%
  % Inhibition of Swelling: 48.5%

## COC(=O)CC[C@@H](C)[C@H]1CC[C@H]2[C@@H]3CC[C@@H]4C[C@H](O)CC[C@]4(C)[C@H]3CC[C@]12C [methyl lithocholate]
  percent inhibition of swelling caused by AA alone: about 17.5%
  % Inhibition of Swelling: 17.5%
